Results published in patent US9572786B2, “Use of capsiate or dihydrocapsidate” (Catholic University Industry Academy Cooperation Foundation, priority 2007, dated 2017).

Legend:
HUVEC = assay: [14C] sucrose permeability assay; format: cell-based, human; settings: 5, 10, 25 μM, VEGF 50 ng/mL for 1 hour
Protocol: [^14C] sucrose permeability assay was carried out in order to identify the effect of capsiate or dihydrocapsiate on VEGF-induced endothelial permeability. In brief, HUVEC were placed on a transwell filter (Corning Costar). At confluence, the cells were cultured in M199 medium containing 1% FBS for 3 hours. After treating with capsiate or dihydrocapsiate at different concentrations (5 μM, 10 μM, 25 μM) for 30 minutes, the cells were treated with VEGF (50 ng/mL) for 1 hour. [^14C] sucrose (0.8 μCi/mL, 50 μL) was added to the upper compartment. 30 minutes later, the irradiation level was measured at the lower compartment using a scintillation counter (Wallac, PerkinElmer).

MMP-2 = assay: UV-induced MMP-2 mRNA expression, RT-PCR; format: cell-based, human; settings: HaCaT cells; 10, 25, 50 μM; UV 100 J/m^2; 36 hours
Protocol: (§1) The inhibition effect of capsiate on the expression of MMP-2 and MMP-9, which induce angiogenesis, was investigated through measurement of mRNA expression by RT-PCR and protein expression and activity measurement by zymography.
(§2) In order to investigate the inhibition effect of capsiate on MMP expression, 5×10^5 HaCaT cells were placed on a 60 mm Petri dish and cultured for 24 hours in DMEM containing 10% FBS. Subsequently, the cells were cultured for 24 hours in DMEM containing 1% FBS until starvation. Then, after treating with capsiate at different concentrations (10 μM, 25 μM, 50 μM) for 30 minutes, followed by washing 3 times with PBS, UV was irradiated at an intensity of 100 J/m^2. Immediately after the UV irradiation, the cells were washed again with PBS and further cultured for 36 hours in DMEM containing 1% FBS, which was treated with capsiate at the same concentration as in the pre-treatment. The degree of intracellular mRNA expression for MMP-2 and MMP-9 was measured by RT-PCR in the same manner as in Example 3. The degree of MMP expression was compared with that of the non-treated group.

MMP-9 = assay: UV-induced MMP-9 mRNA expression, RT-PCR; format: cell-based, human; settings: HaCaT cells; 10, 25, 50 μM; UV 100 J/m^2; 36 hours
Protocol: as §1, §2

IL-6 = assay: UV-induced pro-inflammatory cytokine mRNA, RT-PCR: IL-6; format: cell-based, human; settings: HaCaT cells; 10, 25, 50 μM; UV 100 J/m^2; 4 hours
Protocol: 1×10^6 HaCaT cells were placed on a 100 mm Petri dish and cultured for 24 hours in DMEM containing 10% FBS. Subsequently, the cells were cultured for 24 hours in DMEM containing 1% FBS until starvation. Then, after treating with capsiate at different concentrations (10 μM, 25 μM, 50 μM) for 30 minutes, followed by washing 3 times with PBS, UV was irradiated at an intensity of 100 J/m^2 to induce the production of cytokines. Immediately after the UV irradiation, the cells were washed again with PBS and further cultured for 4 hours in DMEM containing 1% FBS, which was treated with capsiate at the same concentration as in the pre-treatment.
Then, the degree of mRNA expression for IL-6, IL-8 and TNF-α induced mainly in the skin by the UV irradiation was evaluated by RT-PCR in order to measure the inhibition effect against the pro-inflammatory cytokines.
RNAs were extracted from the cells of each test group using Trizol (Invitrogen, USA) and used as template for PCR (PTC-225 Peltier thermal cycler, MJ Research, USA) to prepare cDNAs for each test group. Using the resultant cDNAs as template, the degree of mRNA expression for IL-6, IL-8 and TNF-α was measured by RT-PCR (Roter Gene 6000 series, Corbett Research, Australia) using commercial IL-6, IL-8 and TNF-α primers. […]

[1] = tested on: Human umbilical vein endothelial cells (HUVEC); assay: VEGF-induced proliferation of endothelial cells, MTT assay; format: cell-based; settings: for proliferation of HUVEC induced by VEGF (MTT): 1, 5, 10, 25 μM, 10 ng/mL VEGF, 48 hours; for growth of HUVEC without VEGF (cell toxicity): concentration up to 50 μM without VEGF, not shown in figure
Protocol: MTT assay was carried out investigate the effect of capsiate or dihydrocapsiate on the proliferation of endothelial cells (EC) induced by VEGF.
Human umbilical vein endothelial cells (HUVEC) were placed on a gelatin-coated 24-well plate at a concentration of 2×10^4 cells/well. After culturing for 24 hours, followed by washing twice with M199 medium (Invitrogen, USA), the cells were cultured for 6 hours in M199 medium containing 1% FBS. After addition of capsiate or dihydrocapsiate at different concentrations (1 μM, 5 μM, 10 μM, 25 μM), followed by pre-culturing for 30 minutes, 10 ng/mL VEGF (Upstate, USA) was added and the cells were cultured for 48 hours. Then, 3-(4,5-dimethylthiazol-2-yl)-2,5-diphenyltetrazolium bromide salt (MTT) solution (0.5 mg/mL) was added and the cells were cultured at 37° C. for 3 hours. Remaining MTT was cautiously removed and the formed crystal was dissolved in DMSO for 30 minutes and subjected to absorbance measurement at 560 nm after mixing well for 5 minutes.

Lck = assay: Tyrosine phosphorylation in T cells, Western blotting with anti-PY antibody; format: cell-based, C57/BL6 mouse; settings: mouse spleen T cells; 5 and 25 uM; α-CD3 and α-CD4 or α-CD3
Protocol: Western blotting was carried out using anti-tyrosine phosphorylation (anti-PY) antibody in order to investigate the mechanism by which the proliferation of T cells is inhibited by capsiate.
Specifically, 5×10^5 of the T cells isolated in Example 14-1 was placed on a 96-well plate and capsiate was treated at concentrations of 5 and 25 uM. After treating with 2 μg/mL α-CD3 and α-CD4, or 2 μg/mL α-CD3, followed by incubation for 10 minutes in ice and then incubation for 10 minutes at 37° C., centrifuge was carried out. The cells obtained from the centrifuge was lysed using RIPA buffer containing 2 mM EDTA, 137 mM NaCl, 20 mM Tris-HCl (pH 8.0), 1 mM sodium vanadate, 10 mM NaF, 1 mM phenylmethanesulfonyl fluoride (PMSF), 1% NP-40, 10% glycerol and protease inhibitor cocktail, and subjected to SDS-PAGE electrophoresis using 10% acrylamide gel in order to isolate the proteins. The isolated proteins were transferred to a nylon membrane and tyrosine phosphorylated proteins were separated using mouse anti-PY antibody (Becton Dickison, USA) and anti-mouse IgG-HRP conjugation antibody (1; 10,000, Zymed) as the secondary antibody. The isolated proteins were detected by ECL (Amersham, USA) and visualized using RAS 3000 imaging system (Fuji Film, Japan).

SMILES | VEGF-increased permeability of endothelial cells (HUVEC) | UV-induced mRNA expression of MMP-2 (MMP-2) | UV-induced mRNA expression of MMP-9 (MMP-9) | expression of IL-6 (mRNA) increased by UV irradiation (IL-6) | proliferation of HUVEC induced by VEGF (MTT) [1] | growth of HUVEC without VEGF (cell toxicity) [1] | tyrosine phosphorylation in T cells (Lck)
COc1cc(COC(=O)CCCC/C=C/C(C)C)ccc1O [capsiate] | decreased in a concentration-dependent manner | decreased | decreased | significantly decreases | inhibited by capsiate or dihydrocapsiate in a concentration-dependent manner | grew normally | inhibited
COc1cc(COC(=O)CCCCCCC(C)C)ccc1O [dihydrocapsiate] | decreased in a concentration-dependent manner |  |  |  | inhibited by capsiate or dihydrocapsiate in a concentration-dependent manner | grew normally | 
